Experimental data published in ChEMBL document CHEMBL5550096, “Casitas b cell lymphoma‑B (Cbl-b): A new therapeutic avenue for small-molecule immunotherapy” (Bioorg Med Chem, 2024).
Each block holds one compound with its values, some of them ahead of it. Where a SMILES comes first, the peptide text is derived from it. [ ]: non-standard residue; d: D form. The star is where a group is joined. pY = N[C@@H](Cc1ccc(OP(=O)(O)O)cc1)C(=O)O; Myristoyl = CCCCCCCCCCCCCC(=O)*

Key:
[1] = molecular target: T1, E3 ubiquitin-protein ligase CBL-B (Homo sapiens, UniProt Q13191); assay: Inhibition of Cbl-b (unknown origin) by TR-FRET assay
[2] = molecular target: T1, E3 ubiquitin-protein ligase CBL-B; assay: Inhibition of Cbl-b (unknown origin) ubiquitination by TR-FRET assay
[3] = molecular target: T1, E3 ubiquitin-protein ligase CBL-B
Description: Binding affinity to CBl-b (unknown origin) assessed as dissociation constant by Surface plasmon resonance

[4] = molecular target: T1, E3 ubiquitin-protein ligase CBL-B; assay: Inhibition of Cbl-b (unknown origin) by SPR assay
[5] = molecular target: T1, E3 ubiquitin-protein ligase CBL-B; assay: Inhibition of Cbl-b (unknown origin) by HTRF assay
[6] = molecular target: T1, E3 ubiquitin-protein ligase CBL-B; assay: Inhibition of Cbl-b (unknown origin)
[7] = Intrinsic clearance in mouse liver microsomes by HPLC-MS/MS analysis
[8] = Half life in rat plasma; assay type: ADME, cell-free
[9] = molecular target: T1, E3 ubiquitin-protein ligase CBL-B; assay: Inhibition of N-terminal His-tagged human Cbl-b (40 to 426 residues) expressed in Escherichia coli by measured for 90 mins by HTRF method
[10] = molecular target: T1, E3 ubiquitin-protein ligase CBL-B; assay: Inhibition of biotinylated recombinant Cbl-b (36 to 427 residues)(unknown origin) expressed in Escherichia coli BL21(DE3) measured for 1 hr by TR-FRET assay
[11] = molecular target: T1, E3 ubiquitin-protein ligase CBL-B; assay: Inhibition of recombinant Cbl-b (unknown origin) ubiquitination incubated for 1 hr by TR-FRET assay

T1 sequence (Q13191 whole entry): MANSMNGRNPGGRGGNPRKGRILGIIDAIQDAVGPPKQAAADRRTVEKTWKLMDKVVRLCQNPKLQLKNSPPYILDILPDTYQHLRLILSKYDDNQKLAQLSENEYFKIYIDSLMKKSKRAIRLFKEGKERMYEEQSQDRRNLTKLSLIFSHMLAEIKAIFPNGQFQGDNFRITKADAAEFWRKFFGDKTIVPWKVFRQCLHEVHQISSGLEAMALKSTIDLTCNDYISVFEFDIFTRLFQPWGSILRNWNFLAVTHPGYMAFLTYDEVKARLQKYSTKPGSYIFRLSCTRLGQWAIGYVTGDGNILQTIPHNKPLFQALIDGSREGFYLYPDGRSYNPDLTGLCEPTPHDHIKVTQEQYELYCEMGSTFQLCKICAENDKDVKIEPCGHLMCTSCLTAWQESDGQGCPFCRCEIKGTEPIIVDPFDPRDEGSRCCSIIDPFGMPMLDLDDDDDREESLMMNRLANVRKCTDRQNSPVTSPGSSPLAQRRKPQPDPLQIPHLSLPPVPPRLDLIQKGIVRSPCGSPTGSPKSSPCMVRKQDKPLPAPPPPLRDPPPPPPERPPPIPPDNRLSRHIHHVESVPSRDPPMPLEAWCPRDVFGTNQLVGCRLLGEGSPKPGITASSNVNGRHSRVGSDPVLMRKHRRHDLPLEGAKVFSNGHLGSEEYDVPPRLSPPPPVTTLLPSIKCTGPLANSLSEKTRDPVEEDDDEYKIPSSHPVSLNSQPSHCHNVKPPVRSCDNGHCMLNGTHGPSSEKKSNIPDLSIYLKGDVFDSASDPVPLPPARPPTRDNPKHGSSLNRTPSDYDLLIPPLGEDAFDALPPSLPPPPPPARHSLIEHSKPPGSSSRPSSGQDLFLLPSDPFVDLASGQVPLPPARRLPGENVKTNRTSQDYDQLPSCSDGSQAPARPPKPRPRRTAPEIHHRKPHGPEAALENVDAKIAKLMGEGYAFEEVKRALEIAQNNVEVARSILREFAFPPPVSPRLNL

SMILES: Cc1cc(C(=O)Nc2cccc(C3(Cc4nncn4C)COC3)c2)nc(C2CC2)n1
- IC50 [1]: 20 nM
- IC50 [2]: 21 nM
- Kd [3]: 20 nM

SMILES: Cn1cnnc1[C@]1(c2cccc(N3C(=O)c4cc(CNC5(C)CCC5)cc5cccc3c45)c2)C[C@H](C)C1
- IC50 [4]: 20 nM
- IC50 [5]: 20 nM

SMILES: Cn1cnnc1[C@]1(c2cccc(-c3cnc4c(C(F)(F)F)cc(CN5CC6CC(C)(C6)C5)cn4c3=O)c2)C[C@H](C)C1
- IC50 [6]: 20 nM
- IC50 [9]: 25 nM

SMILES: Cn1cnnc1C(F)(F)[C@](C)(F)c1cccc(NC(=O)N2CC3(CNC3)Oc3cccnc32)c1
- IC50 [10]: < 100 nM
- IC50 [6]: < 100 nM

SMILES: COCC1(NCc2cc3c(c(C(F)(F)F)c2)CN(c2cccc([C@]4(c5nncn5C)C[C@H](OC)C4)c2)C3=O)CC1
- IC50 [4]: 4 nM
- Kd [3]: 4 nM

SMILES: Cn1cnnc1-c1cc(C#N)ccc1-c1cc(C2CC2)nc(N2Cc3c(cc(CNCC4(F)CCC4)cc3C(F)(F)F)C2=O)c1
- IC50 [4]: 200 nM
- IC50 [5]: < 200 nM

SMILES: Cc1cc(CNC2(C)CCC2)cc2c(=O)c(-c3cccc([C@]4(c5nncn5C)C[C@@H](C)C4)c3)coc12
- IC50 [6]: 10 nM
- IC50 [9]: 13 nM

SMILES: Cn1cnnc1[C@]1(c2cccc(-n3cc4c(C(F)(F)F)cc(CN5CCC6(CC6)C5)cn4c3=O)c2)C[C@H](C)C1
- IC50 [11]: < 100 nM
- IC50 [10]: < 100 nM
- IC50 [6]: < 100 nM

Now from value to compound:

- IC50 [6]: 6500 nM
SMILES: O=C(N/C=C/c1ccc(O)cc1)c1c(-c2ccc(O)c(O)c2)c(-c2ccc(O)c(O)c2)c(C(=O)N/C=C/c2ccc(O)cc2)n1CCc1ccc(O)cc1

- CLint scaled [7]: 500 mL/min/kg
- half-life [8]: 2.33 h
SMILES: C[C@H](Sc1nncn1C)c1cccc(NC(=O)c2ccnc(C3CC3)n2)c1

- IC50 [2]: 7 nM
- IC50 [5]: 7 nM
SMILES: CC(C)[C@H]1CN(C)CCN1Cc1cc(C(=O)Nc2cccc(C3([C@@H](F)c4nncn4C)CC(F)(F)C3)c2)nc(C2CC2)c1

- IC50 [6]: 11000 nM
SMILES: CO[C@@]1(C(=O)N/C=C/c2ccc(O)cc2)O[C@](O)(C(=O)N/C=C/c2ccc(O)cc2)[C@@H](c2ccc(O)c(O)c2)[C@@H]1c1ccc(O)c(O)c1

- IC50 [11]: < 5 nM
- IC50 [2]: < 5 nM
- Kd [3]: 8 nM
SMILES: C[C@H]1CCCN(Cc2cc3c(c(C(F)(F)F)c2)CN(c2cccc([C@]4(c5nncn5C)C[C@@H](C)C4)c2)C3=O)C1

- IC50 [11]: 30000 nM
SMILES: CCCCCCCCCCCCCC(=O)N[C@@H](CC(=O)O)C(=O)NCC(=O)N[C@@H](Cc1ccc(OP(=O)(O)O)cc1)C(=O)N[C@@H](CCSC)C(=O)N1CCC[C@H]1C(=O)O (Myristoyl-DG[pY]MP-OH)

- IC50 [10]: < 100 nM
- IC50 [6]: < 100 nM
SMILES: C[C@H](Cc1nncn1C)c1cccc(-c2n[nH]c3c(CN4CC[C@H](F)C4)cc(C(F)(F)F)nc23)c1

- IC50 [6]: 11000 nM
- IC50 [9]: 4 nM
SMILES: CC(c1cc(C(=O)Nc2cccc([C@]3(c4nncn4C)C[C@@H](CC#N)C3)c2)nc2cc[nH]c12)N1CCC[C@H](C)C1 (stereo partly specified)

- IC50 [6]: 5 nM
- IC50 [9]: 1 nM
SMILES: Cn1cnnc1[C@]1(c2cccc(NC(=O)c3cc(CN4CCC[C@H](C(F)F)C4)cn4ccnc34)c2)C[C@H](CC#N)C1

- IC50 [10]: < 200 nM
- IC50 [6]: < 200 nM
SMILES: C[C@H]1CCCN(Cc2cc(C(F)(F)F)c3[nH]c(-c4cccc([C@]5(c6nncn6C)C[C@@H](C)C5)c4)nc3c2)C1
